Data reported in article PMC11436758, “Computer-aided drug design to generate a unique antibiotic family” (Nature Communications, 2024).
Values after ≈ are worked out from the molar mass of the structure shown. Values joined by “and” are separate entries in the source; they are usually repeats but may differ in a detail not shown here. Equal values may be shown once.

Columns and labels:
AcpS_R48A = biological target: T1, AcpS_R48A (Escherichia coli, UniProt P24224, R48A); test: Inhibition of purified AcpS site-directed mutant by drug (Suppl Fig 3 source data); assay type: biochemical; settings: for AcpS rate nM/min, Mean / AcpS rate: Suppl Fig 3, [AcpS_R48A] 5 nM; for AcpS rate: replicates
T1 construct: 6x-His (C); made in house

AcpS^H-/108A = biological target: T2, AcpS^H-/108A (Escherichia coli, UniProt P24224, H108A); test: Inhibition of purified AcpS site-directed mutant by DNM0547; assay type: biochemical, E. coli; settings: for AcpS rate nM/min, Mean / AcpS rate: Suppl Fig 3, [AcpS_H108A] 5nM; for AcpS rate: replicates
T2 construct: 6x-His (C); made in house

S. epidermidis (MSSE) = test: MIC, clinical and laboratory strains; assay type: cell-based
Experimental: (§1) The medium employed for the assay was Mueller Hinton II Broth (MHB II; Becton-Dickinson, Sparks, MD, USA). Agar plates used for the organisms were trypticase soy agar plus 5% sheep blood (BD; Sparks, MD, USA). MIC assay plates were prepared using the CLSI broth microdilution procedure. Automated liquid handlers (Multidrop 384, Biomek 2000 and Biomek FX) were used to conduct serial dilutions and liquid transfers. A standardized inoculum of each organism was prepared per CLSI methods. Suspensions were prepared to equal a 0.5 McFarland standard, followed by a 1:20 dilution in test media. The inocula were dispensed into sterile reservoirs divided by length (Beckman Colter) and the Biomek 2000 was used to inoculate the plates. Daughter plates were placed on the Biomek 2000 work surface in reverse orientation so that inoculation took place from low to high drug concentration. The Biomek 2000 delivered 10 μL of the diluted suspension into each well. These inoculations yielded a final cell concentration in the daughter plates of ~5 × 10^5 colony-forming units/mL in each well. The wells of the daughter plates ultimately contained 185 μL of broth, 5 μL of drug solution, and 10 μL of bacterial inoculum. Plates were covered with a sterile lid on the top plate, placed in plastic bags, and incubated at 35 °C for ~18 h. The microplates were viewed from the bottom using a plate viewer and the MIC was read. The MIC was recorded as the lowest concentration of drug that inhibited visible growth of the organism.

S. epidermidis (VISE) = test: MIC, clinical and laboratory strains; assay type: cell-based
Experimental: as §1

T1 sequence (P24224 whole entry R48A): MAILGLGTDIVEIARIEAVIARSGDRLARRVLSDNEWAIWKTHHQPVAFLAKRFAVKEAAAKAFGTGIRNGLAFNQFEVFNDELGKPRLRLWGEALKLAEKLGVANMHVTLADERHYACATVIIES
T2 sequence (P24224 whole entry H108A): as the sequence (P24224 whole entry R48A) above, with A48R, H108A counted along it

CC(C)c1cc(Cl)ccc1-c1cc(-c2nnn[nH]2)c(-c2ccc(Cl)cc2C(C)C)s1 [DNM0547]
AcpS rate nM/min, Mean (AcpS_R48A; Drug Conc 1 uM): 97.88 nM/min
AcpS rate (AcpS_R48A; Drug Conc 1 uM): 102.89 nM/min and 96.62 nM/min and 94.12 nM/min
AcpS rate nM/min, Mean (AcpS_R48A; Drug Conc 2 uM): 93.89 nM/min
AcpS rate (AcpS_R48A; Drug Conc 2 uM): 97.97 nM/min and 91.69 nM/min and 92.02 nM/min
AcpS rate nM/min, Mean (AcpS_R48A; Drug Conc 4 uM): 94.54 nM/min
AcpS rate (AcpS_R48A; Drug Conc 4 uM): 95.47 nM/min and 93.88 nM/min and 94.27 nM/min
AcpS rate nM/min, Mean (AcpS_R48A; Drug Conc 8 uM): 92.47 nM/min
AcpS rate (AcpS_R48A; Drug Conc 8 uM): 92.76 nM/min and 91.81 nM/min and 92.85 nM/min
AcpS rate nM/min, Mean (AcpS_R48A; Drug Conc 16 uM): 48.14 nM/min
AcpS rate (AcpS_R48A; Drug Conc 16 uM): 58.48 nM/min and 54.48 nM/min and 31.45 nM/min
AcpS rate nM/min, Mean (AcpS_R48A; Drug Conc 32 uM): 20.22 nM/min
AcpS rate (AcpS_R48A; Drug Conc 32 uM): 22.18 nM/min and 16.02 nM/min and 22.44 nM/min
AcpS rate nM/min, Mean (AcpS_R48A; Drug Conc 64 uM): 10.15 nM/min
AcpS rate (AcpS_R48A; Drug Conc 64 uM): 9.77 nM/min and 11.77 nM/min and 8.90 nM/min
AcpS rate nM/min, Mean (AcpS_R48A; Drug Conc 128 uM): 4.77 nM/min
AcpS rate (AcpS_R48A; Drug Conc 128 uM): 4.67 nM/min (2×) and 4.95 nM/min
remaining activity at 1 µM (AcpS_R48A; read-out: % of untreated, Suppl Fig 3, [AcpS_R48A] 5 nM, Drug Conc 1 uM, replicates): 106%
remaining activity at 2 µM (AcpS_R48A; read-out: % of untreated, Suppl Fig 3, [AcpS_R48A] 5 nM, Drug Conc 2 uM, replicates): 101%
remaining activity at 4 µM (AcpS_R48A; read-out: % of untreated, Suppl Fig 3, [AcpS_R48A] 5 nM, Drug Conc 4 uM, replicates): 98.7%
remaining activity at 8 µM (AcpS_R48A; read-out: % of untreated, Suppl Fig 3, [AcpS_R48A] 5 nM, Drug Conc 8 uM, replicates): 95.9%
remaining activity at 32 µM (AcpS_R48A; read-out: % of untreated, Suppl Fig 3, [AcpS_R48A] 5 nM, Drug Conc 32 uM, replicates): 22.9%
remaining activity at 64 µM (AcpS_R48A; read-out: % of untreated, Suppl Fig 3, [AcpS_R48A] 5 nM, Drug Conc 64 uM, replicates): 10.1%
remaining activity at 128 µM (AcpS_R48A; read-out: % of untreated, Suppl Fig 3, [AcpS_R48A] 5 nM, Drug Conc 128 uM, replicates): 4.83%
IC50 (AcpS^H-/108A): 5.6 µM
AcpS rate nM/min, Mean (AcpS^H-/108A; Drug Conc 1 uM): 7.81 nM/min
AcpS rate (AcpS^H-/108A; Drug Conc 1 uM): 7.96 nM/min and 7.81 nM/min and 7.64 nM/min
AcpS rate nM/min, Mean (AcpS^H-/108A; Drug Conc 2 uM): 6.86 nM/min
AcpS rate (AcpS^H-/108A; Drug Conc 2 uM): 6.91 nM/min and 7.01 nM/min and 6.66 nM/min
AcpS rate nM/min, Mean (AcpS^H-/108A; Drug Conc 4 uM): 4.72 nM/min
AcpS rate (AcpS^H-/108A; Drug Conc 4 uM): 4.74 nM/min and 4.76 nM/min and 4.66 nM/min
AcpS rate nM/min, Mean (AcpS^H-/108A; Drug Conc 8 uM): 3.23 nM/min
AcpS rate (AcpS^H-/108A; Drug Conc 8 uM): 2.93 nM/min and 3.30 nM/min and 3.44 nM/min
AcpS rate nM/min, Mean (AcpS^H-/108A; Drug Conc 16 uM): 2.83 nM/min
AcpS rate (AcpS^H-/108A; Drug Conc 16 uM): 3.20 nM/min and 2.39 nM/min and 2.90 nM/min
AcpS rate nM/min, Mean (AcpS^H-/108A; Drug Conc 32 uM): 1.69 nM/min
AcpS rate (AcpS^H-/108A; Drug Conc 32 uM): 1.65 nM/min and 1.74 nM/min and 1.68 nM/min
AcpS rate nM/min, Mean (AcpS^H-/108A; Drug Conc 64 uM): 1.60 nM/min
AcpS rate (AcpS^H-/108A; Drug Conc 64 uM): 1.52 nM/min and 1.63 nM/min and 1.65 nM/min
AcpS rate nM/min, Mean (AcpS^H-/108A; Drug Conc 128 uM): 1.34 nM/min
AcpS rate (AcpS^H-/108A; Drug Conc 128 uM): 1.38 nM/min and 1.44 nM/min and 1.20 nM/min
remaining activity at 1 µM (AcpS^H-/108A; read-out: % of untreated, Suppl Fig 3, [AcpS_H108A] 5nM, Drug Conc 1 uM, replicates): 105%
remaining activity at 2 µM (AcpS^H-/108A; read-out: % of untreated, Suppl Fig 3, [AcpS_H108A] 5nM, Drug Conc 2 uM, replicates): 90.9%
remaining activity at 4 µM (AcpS^H-/108A; read-out: % of untreated, Suppl Fig 3, [AcpS_H108A] 5nM, Drug Conc 4 uM, replicates): 62.4%
remaining activity at 8 µM (AcpS^H-/108A; read-out: % of untreated, Suppl Fig 3, [AcpS_H108A] 5nM, Drug Conc 8 uM, replicates): 38.5%
remaining activity at 16 µM (AcpS^H-/108A; read-out: % of untreated, Suppl Fig 3, [AcpS_H108A] 5nM, Drug Conc 16 uM, replicates): 42.1%
remaining activity at 32 µM (AcpS^H-/108A; read-out: % of untreated, Suppl Fig 3, [AcpS_H108A] 5nM, Drug Conc 32 uM, replicates): 21.7%
remaining activity at 64 µM (AcpS^H-/108A; read-out: % of untreated, Suppl Fig 3, [AcpS_H108A] 5nM, Drug Conc 64 uM, replicates): 20%
remaining activity at 128 µM (AcpS^H-/108A; read-out: % of untreated, Suppl Fig 3, [AcpS_H108A] 5nM, Drug Conc 128 uM, replicates): 18.1%
MIC (S. epidermidis (MSSE); S. epidermidis (MSSE) 3234): 4 mg/L (≈ 8.74 µM)
MIC (S. epidermidis (MSSE); S. epidermidis (MSSE) 3602): 2 mg/L (≈ 4.37 µM)
MIC (S. epidermidis (MSSE); S. epidermidis (MSSE) 3609): 4 mg/L (≈ 8.74 µM)
MIC (S. epidermidis (MSSE); S. epidermidis (MSSE) 3617): 1 mg/L (≈ 2.19 µM)
MIC (S. epidermidis (MSSE); S. epidermidis (MSSE) 3620): 2 mg/L (≈ 4.37 µM)
MIC (S. epidermidis (MSSE); S. epidermidis (MSSE) 3621): 1 mg/L (≈ 2.19 µM)
MIC (S. epidermidis (VISE); S. epidermidis (VISE) 2020): 8 mg/L (≈ 17.5 µM)
MIC (S. epidermidis (VISE); S. epidermidis (VISE) 2021): 1 mg/L (≈ 2.19 µM)
MIC (S. epidermidis (VISE); S. epidermidis (VISE) 2022): 2 mg/L (≈ 4.37 µM)
MIC (S. epidermidis (VISE); S. epidermidis (VISE) 2023): 4 mg/L (≈ 8.74 µM)
MIC (S. epidermidis (VISE); S. epidermidis (VISE) 2024): 32 mg/L (≈ 70 µM)
